# According to patent US8003800B2, “Thiophene derivatives as S1P1/EDG1 receptor agonists” (Actelion Pharmaceuticals Ltd., priority 2006, dated 2011):
# Tested on: circulating lymphocytes
# Test: Assessment of in vivo efficacy: circulating lymphocytes after oral administration
# Parameters: unit not given here
# Settings: 6 h after oral administration of 10 mg/kg to normotensive male Wistar rats, as compared to vehicle-treated group; mean±SEM
# Experimental: The efficacy of the compounds of Formula (I) is assessed by measuring the circulating lymphocytes after oral administration of 3 to 30 mg/kg of a compound of Formula (I) to normotensive male Wistar rats. The animals are housed in climate-controlled conditions with a 12 h-light/dark cycle, and have free access to normal rat chow and drinking water. Blood is collected before and 3, 6 and 24 h after drug administration. Full blood is subjected to hematology using Advia Hematology system (Bayer Diagnostics, Züurich, Switzerland).
# All data are presented as mean±SEM. Statistical analyses are performed by analysis of variance (ANOVA) using Statistica (StatSoft) and the Student-Newman-Keuls procedure for multiple comparisons. The null hypothesis is rejected when p<0.05.
row,Compound,Lymphocyte counts
1,"Cc1cc(-c2noc(-c3scc(CC(C)C)c3C)n2)cc(C)c1OCC(O)CNC(=O)CO (racemic) [Example 23, rac-2-Hydroxy-N-(2-hydroxy-3-{4-[5-(4-isobutyl-3-methyl-thiophen-2-yl)-[1,2,4]oxadiazol-3-yl]-2,6-dimethyl-phenoxy}-propyl)acetamide]",−73 ± 2
2,"Cc1cc(-c2noc(-c3sc(C)c(CC(C)C)c3C)n2)cc(C)c1OCC(O)CNC(=O)CO (racemic) [Example 50, rac-2-Hydroxy-N-(2-hydroxy-3-{4-[5-(4-isobutyl-3,5-dimethyl-thiophen-2-yl)-[1,2,4]oxadiazol-3-yl]-2,6-dimethyl-phenoxy}-propyl)acetamide]",−93 ± 1
3,"COc1cc(OCC(O)CNC(=O)CO)ccc1-c1noc(-c2cc(CC(C)C)c(C)s2)n1 (stereo not drawn) [Example 46, 2-hydroxy-N-(2-hydroxy-3-{4-[5-(4-isobutyl-5-methyl-thiophen-2-yl)-[1,2,4]oxadiazol-3-yl]-3-methoxy-phenoxy}-propyl)-acetamide]",−77 ± 3
4,"CCc1cc(-c2nnc(-c3cc(CC(C)C)c(C)s3)o2)cc(C)c1OC[C@@H](O)CNC(=O)CO [Example 64, N—((S)-3-{2-ethyl-4-[5-(4-isobutyl-5-methyl-thiophen-2-yl)-[1,3,4]oxadiazol-2-yl]-6-methyl-phenoxy}-2-hydroxy-propyl)-2-hydroxy-acetamide]",−66 ± 1

# Target: recombinant human S1P1 receptor (Homo sapiens, UniProt P21453)
# Sequence (P21453 whole entry): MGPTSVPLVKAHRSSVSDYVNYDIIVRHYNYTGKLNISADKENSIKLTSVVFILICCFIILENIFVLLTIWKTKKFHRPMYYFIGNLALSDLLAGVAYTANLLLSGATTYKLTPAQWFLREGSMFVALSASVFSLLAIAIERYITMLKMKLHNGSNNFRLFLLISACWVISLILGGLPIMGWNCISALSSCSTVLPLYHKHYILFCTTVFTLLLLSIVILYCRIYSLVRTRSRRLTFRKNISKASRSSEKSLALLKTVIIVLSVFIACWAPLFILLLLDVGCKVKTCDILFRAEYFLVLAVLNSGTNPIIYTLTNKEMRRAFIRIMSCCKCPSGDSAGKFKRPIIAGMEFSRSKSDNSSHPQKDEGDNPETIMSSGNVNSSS
# Test: GTPγS assay to determine EC50 values
# Type: biochemical
# Settings: 35S-GTPγS binding, membrane preparations of CHO cells expressing recombinant human S1P1 receptor, pH 7.4
# Experimental: GTPγS binding assays are performed in 96 well microtiter plates (Nunc, 442587) in a final volume of 200 μl, using membrane preparations of CHO cells expressing recombinant human S1P1 receptor. Assay conditions are 20 mM Hepes (Fluka, 54461), 100 mM NaCl (Fluka, 71378), 5 mM MgCl2 (Fluka, 63064), 0.1% BSA (Calbiochem, 126609), 1 μM GDP (Sigma, G-7127), 2.5% DMSO (Fluka, 41644), […] ^35S-GTPγS (Amersham Biosciences, SJ1320). The pH is 7.4. Test compounds are dissolved and diluted in 100% DMSO and pre-incubated at room temperature for 30 min in 150 μl of the above assay buffer, in the absence of ^35S-GTPγS. After addition of 50 μl of ^35S-GTPγS, the assay is incubated for 1 h at rt. The assay is terminated by transfer of the reaction mixture to a Multiscreen plate (Millipore, MAHFC1H60) using a cell harvester from Packard Biosciences, and the plates are washed with ice-cold 10 mM Na2HPO4/NaH2PO4 (70%/30%), dried, sealed at the bottom and, after addition of 25 μl MicroScint20 (Packard Biosciences, order #6013621), sealed on the top. Membrane-bound ^35S-GTPγS is measured with a TopCount from Packard Biosciences.
# EC50 is the concentration of agonist inducing 50% of the maximal specific ^35S-GTPγS binding. Specific binding is determined by subtracting non-specific binding from maximal binding. Maximal binding is the amount of cpm bound to the Multiscreen plate in the presence of 10 μM of S1P. Non-specific binding is the amount of binding in the absence of an agonist in the assay.
# The EC50 values were determined according to the method described above: […]
row,EC50,Compound
1,5.5 nM,"CCc1cc(-c2noc(-c3cc(CC(C)C)c(C)s3)n2)cc(C)c1OCC(O)CNC(=O)CO (racemic) [Example 16, rac-N-(3-{2-Ethyl-4-[5-(4-isobutyl-5-methyl-thiophen-2-yl)-[1,2,4]oxadiazol-3-yl]-6-methyl-phenoxy}-2-hydroxy-propyl)-2-hydroxy-acetamide]"
2,2.1 nM,"Cc1cc(-c2noc(-c3sc(C)c(CC(C)C)c3C)n2)cc(C)c1OCC(O)CNC(=O)CO (racemic) [Example 50, rac-2-Hydroxy-N-(2-hydroxy-3-{4-[5-(4-isobutyl-3,5-dimethyl-thiophen-2-yl)-[1,2,4]oxadiazol-3-yl]-2,6-dimethyl-phenoxy}-propyl)acetamide]"
3,5.8 nM,"CCCc1c(CC(C)C)csc1C(=O)/C=C/c1cc(C)c(O)c(C)c1 [Example 3, 3-(4-Hydroxy-3,5-dimethyl-phenyl)-1-(4-isobutyl-3-propyl-thiophen-2-yl)-propenone]"
4,8.4 nM,"Cc1cc(CCC(=O)c2scc(CC(C)C)c2CC(C)C)cc(C)c1O [Example 7, 1-(3,4-diisobutyl-thiophen-2-yl)-3-(4-hydroxy-3,5-dimethyl-phenyl)-propan-1-one]"
5,7.5 nM,"CCCc1c(CC(C)C)csc1C(=O)CCc1cc(C)c(OC[C@@H](O)CO)c(C)c1 [Example 8, 3-[4-((S)-2,3-dihydroxy-propoxy)-3,5-dimethyl-phenyl]-1-(4-isobutyl-3-propyl-thiophen-2-yl)-propan-1-one]"
6,7.5 nM,"CCc1cc(-c2noc(-c3cc(CC(C)C)c(C)s3)n2)cc(C)c1CCC(=O)NCCO [Example 58, 3-{2-ethyl-4-[5-(4-isobutyl-5-methyl-thiophen-2-yl)-[1,2,4]oxadiazol-3-yl]-6-methyl-phenyl}-N-(2-hydroxy-ethyl)-propionamide]"
7,1.1 nM,"Cc1cc(-c2noc(-c3scc(CC(C)C)c3C)n2)cc(C)c1OC[C@@H](O)CNC(=O)CO [Example 70, (S)-2-Hydroxy-N-(2-hydroxy-3-{4-[5-(4-isobutyl-3-methyl-thiophen-2-yl)-[1,2,4]oxa-diazol-3-yl]-2,6-dimethyl-phenoxy}-propyl)-acetamide]"
8,0.4 nM,"CCc1cc(-c2nnc(-c3sc(C)c(CC(C)C)c3C)o2)cc(C)c1OC[C@@H](O)CNC(=O)CO [Example 109, (S)—N-(3-{2-Ethyl-4-[5-(4-isobutyl-3,5-dimethyl-thiophen-2-yl)-[1,3,4]oxadiazol-2-yl]-6-methyl-phenoxy}-2-hydroxy-propyl)-2-hydroxy-acetamide]"
